13 compounds from US20230303544A1, “LMO2 PROTEIN INHIBITORS” (UNIVERSITY OF OXFORD, priority 2020, published 2023) can be followed below.

A word on the IC50: it is the concentration needed to halve the response being measured. The low end stands for inhibition by little substance, the high end for a need for much substance.

Each structure is given as a SMILES string. “And” between values parts separate entries of the source, which are not always exact repeats. Identical values can stand only once.

For data set [1], the target named is T1, LMO2-iDAb LMO2dm3 interaction (Homo sapiens, UniProt P25791).
T1 construct: LMO2 cDNA was cloned into the pEF-RLuc8-MCS and pEF-MCS-RLuc8 plasmids; expressed in transfected cells; host or cells: HEK293T
T1 sequence (P25791 1-158): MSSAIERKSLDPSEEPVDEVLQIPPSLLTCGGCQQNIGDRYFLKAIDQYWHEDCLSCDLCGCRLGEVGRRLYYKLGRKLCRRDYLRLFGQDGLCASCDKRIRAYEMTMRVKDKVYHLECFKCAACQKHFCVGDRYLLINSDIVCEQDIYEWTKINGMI
Kind of data set: LMO2-iDAb LMO2dm3 BRET assay. The format is cell-based. To be noted: 22 h; for inhibition of LMO2-iDAb LMO2dm3 interaction (in words): BRET competition, Abd concentration 1 (or 5), 10, 20 μM; for IC50: BRET dose response, HEK293T cells, 0.01-50 μM. The protocol: For all BRET experiments (titration curves and competition assays) 650,000 HEK293T were seeded in each well of a 6 well plates. After 24 hours at 37° C., cells were transfected with a total of 1.6 μg of DNA mix, containing the donor+acceptor±competitor plasmids, using Lipofectamine 2000 transfection reagent (Thermo-Fisher). In dose response competition experiments, competitors were transfected with the following amount of DNA: 0.1; 0.5 and 1 μg. In single dose competition experiments, competitors were transfected with […] of DNA. Cells were detached 24 hours later, washed with PBS and seeded in a white 96-well plate (clear bottom, PerkinElmer, Cat #6005181) in OptiMEM no phenol red medium complemented with 4% FBS and cells were incubated for an additional 20-24 hours at 37° C. before the BRET assay reading. A detailed BRET protocol is provided by Bery and Rabbitts, (2019).
Compounds were prepared in 100% DMSO at 10 mM. For BRET competition assays, cells were treated with the indicated compounds at concentration of 1 (or 5), 10 and 20 μM for 22 h. For BRET-based dose response experiments, cells were treated with compounds at concentration of 0.01, 0.1, 1, 4, 10, 25 and 50 μM for 22 h. The compounds were diluted in the BRET medium: OptiMEM no phenol red (Life Technologies) supplemented with 4% FBS and with a final concentration of 0.2% DMSO.
BRET2 signal was determined immediately after injection of coelenterazine 400a substrate (10 μM final) to cells (Cayman Chemicals), using a CLARIOstar instrument (BMG Labtech) with a luminescence module. Total GFP^2 fluorescence was detected with excitation and emission peaks set at 405 nm and 515 nm respectively. Total RLuc8 luminescence was measured with the Luminescence 400-700 nm-wavelength filter.
The BRET signal or BRET ratio corresponds to the light emitted by the GFP^2 acceptor constructs (515 nm±30) upon addition of coelenterazine 400a divided by the light emitted by the RLuc8 donor constructs (410 nm±80). The background signal is subtracted from that BRET ratio using the donor-only negative control where only the RLuc8 fusion plasmid is transfected into the cells. The normalized BRET ratio is the BRET ratio normalized to a negative control (iDAb control or DMSO control) during a competition assay. Total GFP^2 and RLuc8 signals were used to control the protein expression from each plasmid.
On the technique in general: BRET reads energy transfer from a luciferase to a nearby fluorophore.

Another data set concerns the target T2, LMO2-ΔLID (Homo sapiens, UniProt P25791).
T2 construct: UniProt P25791; residues 26-156; hexa-histidine tag (N, cleaved yes); SUMO (N, cleaved yes); made in house; host or cells: E. coli Lemo21(DE3)
T2 sequence (P25791 with tags, fused parts or gaps): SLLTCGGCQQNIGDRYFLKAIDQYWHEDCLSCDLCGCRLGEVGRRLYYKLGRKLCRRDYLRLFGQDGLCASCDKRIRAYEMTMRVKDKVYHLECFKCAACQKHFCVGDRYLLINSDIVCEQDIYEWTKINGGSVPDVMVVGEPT
Nature of the data set: WaterLOGSY NMR binding to LMO2-ΔLID. The following applies: RT. The protocol:
(§1) WaterLOGSY NMR method was used to measure LMO2 ligand interaction (Bataille et al., 2020). WaterLOGSY experiments were conducted at a ^1H frequency of 600 MHz using a Bruker Avance spectrometer equipped with a BBI probe. All experiments were conducted at RT. 3 mm diameter NMR tubes with a sample volume of 200 μL were used for all experiments. For LMO2-LID, solutions were buffered using a 10 mM NaPO4, 250 mM NaCl solution. For LMO2-ΔLID, solutions were buffered using a 10 mM NaPO4, 50 mM NaCl solution. The sample preparation for measuring ligand binding with LMO2-LID is exemplified as follows; the compound (10 μL of a 10 mM solution in DMSO-d6) was added to an Eppendorf tube before sequential addition of the appropriate buffer (90 μL), D2O (20 μL), and the protein (80 μL, 25 μM). The resulting solution was vortexed to mix and transferred to a 3 mm NMR tube prior to the NMR analysis. The sample preparation for measuring ligand binding with LMO2-ΔLID is exemplified as follows; the compound (10 μL of a 10 mM solution in DMSO-d6) was added to an Eppendorf tube before sequential addition of the appropriate buffer (162 μL), D2O (20 μL), and the protein (8 μL, 250 μM). The resulting solution was vortexed to mix and transferred to a 3 mm NMR tube prior to the NMR analysis. […]

Another data set deals with T3, LMO2-LID (Homo sapiens, UniProt P25791).
T3 construct: made in house; host or cells: E. coli BL21(DE3)-Rosetta2 pLysS
T3 sequence (P25791 26-156 limits assumed): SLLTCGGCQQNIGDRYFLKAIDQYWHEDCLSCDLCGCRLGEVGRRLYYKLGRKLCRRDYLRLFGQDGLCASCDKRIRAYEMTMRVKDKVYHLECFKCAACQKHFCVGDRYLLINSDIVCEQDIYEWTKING
T3 sequence (Q86U70 336-375 partner limits assumed): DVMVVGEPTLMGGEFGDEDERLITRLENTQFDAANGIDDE
Kind of data set: WaterLOGSY NMR binding to LMO2-LID. The following applies: RT. The protocol: as §1

For data set [2], the system named is Caco-2 human colon carcinoma cell line. Kind of data set: Caco-2 permeability assay. Type of data set: in vitro ADME. To be noted: 10 μM, 2 hours, 37° C. The protocol: Caco-2 apparent permeability (Papp) was determined in the Caco-2 human colon carcinoma cell line as described (Bavetsias et al., 2016). Cells were maintained (DMEM with 10% fetal bovine serum, penicillin, and streptomycin) in a humidified atmosphere with 5% CO2/95% air for 10 days. Cells were plated out onto a cell culture assembly plate (Millipore, UK), and monolayer confluency was checked using a TEER electrode prior to the assay. Media was washed off and replaced with HBSS buffer (pH7.4) containing compound (10 μM, 1% DMSO) in the appropriate apical and basal donor wells. HBSS buffer alone was placed in acceptor wells. In particular instances a specific P-gp inhibitor, LY335979 (5 μM), was added to the HBSS. The Caco-2 plate was incubated for 2 hours at 37° C. Samples from the apical and basolateral chambers were analysed using a Waters (Milford, MA, US) TQ-S LC-MS/MS system. The cell permeability properties of Abd-L compounds was compared to low (nadolol) and high (antipyrine) permeability compounds and a compound with high export (indinavir).
Apparent permeability (Papp) was determined as follows: […]

Data set [3] can be described thus: Parallel artificial membrane permeability assay (PAMPA). The format is in vitro ADME. To be noted: 10 μM donor, pH 5, 6.5 and 7.4, 16 hours, 30° C. The protocol:
The parallel artificial membrane permeability assay (PAMPA) was used to determine compound permeability by passive diffusion. The assay used an artificial membrane consisting of 2% phosphatidyl choline in dodecane (Sigma Aldrich, Dorset, UK). The donor plate was a MultiScreen-IP Plate with 0.45 μm hydrophobe Immobilon-P Membrane (Millipore, UK) and the acceptor plate was a MultiScreen 96-well Transport Receiver Plate (Millipore, UK). The permeability was measured at 3 different pH levels: pH 5, 6.5 and pH 7.4 in buffer containing 1% Bovine Serum Albumin (Sigma Aldrich, Dorset, UK). A 10 mM DMSO stock solution of test compound was used to prepare the 10 μM PAMPA donor solutions and calibration curves in each of the three buffers.
6 μL of the membrane solution was added to each well of the donor plate. Buffer donor solutions (200 μL) were added to the appropriate wells of the PAMPA donor plate. 300 µL per well of blank PBS (pH 7.4) was added to the PAMPA acceptor plate.
The donor and acceptor plates were then sandwiched together, covered with a lid and incubated at 30° C. in a humid environment for 16 hours. After the incubation period the plates were removed from the incubator and the sandwich was dismantled. […] All sample supernatants were diluted and analysed using a Waters (Milford, MA, US) TQ-S LC-MS/MS system.
Permeability values (cm/s) were calculated using the following equation: […]

Take `O=C(NCCc1ccccc1)c1cnc(N2CCN(Cc3ccc(Cl)cc3)C2=O)o1` [Abd-L11, 2-(3-(4-chlorobenzyl)-2-oxoimidazolidin-1-yl)-N-phenethyloxazole-5-carboxamide]: the “inhibition of LMO2-iDAb LMO2dm3 interaction (in words)” value (from here on “inhibition”) in data set [1] is reported as “unable to inhibit”.
Consider `O=C(NCc1ccc(Oc2ccccc2)cc1)c1coc(N2CCN(Cc3ccccc3)C2=O)n1` [Abd-L13, 2-(3-benzyl-2-oxoimidazolidin-1-yl)-N-(4-phenoxybenzyl)oxazole-4-carboxamide], for which the “binding to LMO2-ΔLID by waterLOGSY NMR” value at LMO2-ΔLID was “bind and showed binding and Direct binding”. At LMO2-LID, the “binding to LMO2-LID by waterLOGSY NMR” value is on record as “not”.
On to `COc1ccc(NC(=O)c2cnc(N3CCN(Cc4ccc(Cl)cc4)C3=O)o2)cc1OC` [Abd-L8, 2-(3-(4-chlorobenzyl)-2-oxoimidazolidin-1-yl)-N-(3,4-dimethoxyphenyl)oxazole-5-carboxamide], for which the “inhibition” value in data set [1] is on record as “unable to inhibit”.
For the compound `N#Cc1cccc(CN2CCN(c3nc(C(=O)Nc4ccc(-n5cccc5)cc4)co3)C2=O)c1` [Abd-L10, N-(4-(1H-pyrrol-1-yl)phenyl)-2-(3-(3-cyanobenzyl)-2-oxoimidazolidin-1-yl)oxazole-4-carboxamide], in data set [1], the IC50 was ~1 µM and 1 µM.
Same read-out and setting: the figure for `COc1cccc(CN2CCN(c3nc(C(=O)Nc4ccc(-n5cccc5)cc4)co3)CC2)c1` [Abd-L15, N-(4-(1H-pyrrol-1-yl)phenyl)-2-(4-(3-methoxybenzyl)piperazin-1-yl)oxazole-4-carboxamide] is 16.6 µM.
As to `COc1cccc(CN2CCN(c3nc(C(=O)Nc4ccc(OCc5ccccc5)cc4)co3)C2=O)c1` [Abd-L9, N-(4-(benzyloxy)phenyl)-2-(3-(3-methoxybenzyl)-2-oxoimidazolidin-1-yl)oxazole-4-carboxamide], in data set [1], the “inhibition” value is recorded as “most potent inhibitor” and the IC50 came out at 1.5 µM. Further, the “binding to LMO2-ΔLID by waterLOGSY NMR” value on LMO2-ΔLID was “bind and showed binding and Direct binding”. Further, the “binding to LMO2-LID by waterLOGSY NMR” value at LMO2-LID was “not”. In addition, in data set [2], the “Caco-2 cell permeability (in words)” value is recorded as “low transport” and the “Caco-2 efflux (in words)” value is listed as “low efflux ratio”. In addition, the “PAMPA permeability (in words)” value in data set [3] is listed as “best properties”.
As for `CS(=O)(=O)Nc1ccccc1NC(=O)c1cnc(N2CCN(Cc3ccccc3)C2=O)s1` [Abd-L5, 2-(3-benzyl-2-oxoimidazolidin-1-yl)-N-(2-(methylsulfonamido)phenyl)thiazole-5-carboxamide], in data set [1], the “inhibition” value is “unable to inhibit”.
On to `COc1cccc(CN2CCN(c3nc(C(=O)Nc4ccc(OCc5ccccc5)cc4)co3)CC2)c1` [Abd-L16, N-(4-(benzyloxy)phenyl)-2-(4-(3-methoxybenzyl)piperazin-1-yl)oxazole-4-carboxamide], for which the IC50 in data set [1] stood at 1.2 µM.
In data set [1], `COc1ccc(CN2CCN(c3nc(C(=O)Nc4ccc(-n5cccc5)cc4)co3)CC2)cc1` [Abd-L19, N-(4-(1H-pyrrol-1-yl)phenyl)-2-(4-(4-methoxybenzyl)piperazin-1-yl)oxazole-4-carboxamide] yielded an IC50 of 48.8 µM. This IC50 lies about 41-fold higher than the previous one.
The same measure, in the same setting: the figure for `COc1cccc(CN2CCN(c3nc(C(=O)Nc4ccc(OCc5ccccc5)cc4)cs3)CC2)c1` [Abd-L17, N-(4-(benzyloxy)phenyl)-2-(4-(3-methoxybenzyl)piperazin-1-yl)thiazole-4-carboxamide] is 13 µM.
Regarding `COc1cccc(CN2CCCN(c3nc(C(=O)Nc4ccc(-n5cccc5)cc4)co3)C2=O)c1` [Abd-L24, N-(4-(1H-pyrrol-1-yl)phenyl)-2-(3-(3-methoxybenzyl)-2-oxotetrahydropyrimidin-1(2H)-yl)oxazole-4-carboxamide], in data set [1], the “inhibition” value is recorded as “do not affect”.
The same measure, in the same setting: the entry for `COc1cccc(CN2CCN(c3nccc(C(=O)Nc4ccc(-n5cccc5)cc4)n3)CC2)c1` [Abd-L25, N-(4-(1H-pyrrol-1-yl)phenyl)-2-(4-(3-methoxybenzyl)piperazin-1-yl)pyrimidine-4-carboxamide] is “do not affect”.
Consider `COc1cccc(CN2CCN(c3nc(C(=O)Nc4ccc(-n5cccc5)cc4)cs3)CC2)c1` [Abd-L18, N-(4-(1H-pyrrol-1-yl)phenyl)-2-(4-(3-methoxybenzyl)piperazin-1-yl)thiazole-4-carboxamide], for which the half-inhibitory concentration (IC50) in data set [1] is 15.8 µM. This lies in the double-digit micromolar range.
